Patent US20250360091A1, “COMBINATION OF SGLT2 INHIBITOR AND MENTHOL AND USE THEREOF IN TREATMENT OF HEART DISEASE” (EAST CHINA UNIVERSITY OF SCIENCE AND TECHNOLOGY, priority 2023, published 2025)

How the values were obtained:
[1] = test system: H9c2 cells; assay: GD-induced injury: LDH release and crystal violet staining (Example 2); type: cell-based, Rat; conditions: empagliflozin 100 μM and 200 μM; GD 48 h
Method: To further verify the anti-heart failure efficacy of the drug composition, H9c2 cells were seeded into 24-well plates. After the cells covered the bottom of the dish, the high-glucose DMEM was removed, the plate was washed once with PBS, and empagliflozin alone and different concentrations of the drug composition were prepared with sugar-free and serum-free DMEM medium, and added to the cells for glucose deprivation treatment. For the GD group, sugar-free and serum-free DMEM medium without drugs was added. For the NG group, high-glucose DMEM containing serum was continued to be added for culture. After 48 hours of glucose deprivation treatment, 50 μL of culture medium was taken to a 96-well plate, and the release of LDH in the culture medium was detected using an LDH detection kit. The culture medium was removed, the cells were placed on ice, and washed twice with pre-cooled PBS for 3 to 5 minutes each time. The cells were fixed with pre-cooled methanol at −20° C. for 10 minutes. Methanol was removed and the cells were returned to room temperature. […] The cells were placed in a 37° C. oven for drying, photographed under a microscope, and the staining was quantified by Image J. The larger the purple area, the more cells survived, and the more LDH was released, which indicated more cell damage. […]

[2] = test system: PGC-1α, PPARα, CPT1b; assay: Western blotting of fatty acid metabolism proteins (Example 6); type: cell-based, Rat; conditions: 48 h; menthol 200 μM alone or 50 μM empagliflozin + 200 μM menthol
Method: 2. Western blotting. H9c2 cells were seeded in a 12-well plate. After 48 hours of drug treatment, the cells were harvested and the total protein in the cells was extracted with RIPA lysis buffer. After BCA quantification, 4× loading buffer was added and boiled in a 95° C. metal bath for 10 minutes to denature the protein. 5-10 μg of the denatured protein sample was added to SDS-PAGE. After electrophoresis, separation, transfer, and blocking, PGC-1α, PPARα, CPT1b, and GAPDH primary antibody were added and incubated overnight at 4° C. The next day, the primary antibody was recovered, and the corresponding secondary antibody was added and incubated at room temperature for 1 hour. After washing three times, ECL chemiluminescent solution was added to the strips, and immunoblotting analysis was performed using a Tanon gel imager. ImageJ software was used to perform grayscale analysis of the immunoblot bands, GAPDH was used as an internal reference for correction, and the relative expression content of the protein was calculated. The experiment was divided into DMSO group (DMSO treatment group with content not exceeding 0.5%), E50 (50 μM EMPA treatment group), M200 (200 μM menthol treatment group), and E50+M200 (50 μM empagliflozin+200 μM menthol treatment group).

## OC[C@H]1O[C@@H](c2ccc(Cl)c(Cc3ccc(O[C@H]4CCOC4)cc3)c2)[C@H](O)[C@@H](O)[C@@H]1O [empagliflozin]
[1]
  cell survival rate (crystal violet purple area, LDH release): significantly increases the cell survival rate in a dose-dependent manner

## CC(C)[C@@H]1CC[C@@H](C)C[C@H]1O [menthol, L-menthol]
[2]
  expression of PCG-1α/PPARα: significantly increase the expression
  expression of fatty acid transporter CPT1b: upregulate the expression
